ChEMBL document CHEMBL1136728, “Antitumor activity of novel deoxoartemisinin monomers, dimers, and trimer” (J Med Chem, 2003)
≈ marks a conversion by molar mass, not a printed value.

Assays:
Format in all cases: functional, cell-based
P388 = test: In vitro cytotoxicity of compound against P388, mouse […] leukemia was defined by microculture tetrazolium assay
EL4 = test: In vitro cytotoxicity of compound against EL4, mouse thymoma was defined by microculture tetrazolium assay
MCF7 = test: In vitro cytotoxicity of compound against MCF7, human breast cancer was defined by microculture tetrazolium assay
BeWo = test: In vitro cytotoxicity of compound against Bewo, human choriocarcinoma was defined by microculture tetrazolium assay
HT-29 = test: In vitro cytotoxicity of compound against HT29, human colorectal adenocarcinoma was defined by microculture tetrazolium assay

Row | SMILES | IC50 (P388) | IC50 (EL4) | IC50 (MCF7) | IC50 (BeWo) | IC50 (HT-29)
1 | C[C@H]1[C@@H](CCNC(=O)CC[C@H]2O[C@@H]3O[C@]4(C)CC[C@H]5[C@H](C)CC[C@@H]([C@H]2C)[C@]35OO4)O[C@@H]2O[C@]3(C)CC[C@H]4[C@H](C)CC[C@@H]1[C@]24OO3 | 10.4 µg/mL (≈ 16.4 µM) | 6.29 µg/mL (≈ 9.92 µM) | 0.005 µg/mL (≈ 0.00789 µM) | 7.5 µg/mL (≈ 11.8 µM) | 0.69 µg/mL (≈ 1.09 µM)
2 | C[C@H]1[C@@H](CCS(=O)(=O)CC[C@H]2O[C@@H]3O[C@]4(C)CC[C@H]5[C@H](C)CC[C@@H]([C@H]2C)[C@]35OO4)O[C@@H]2O[C@]3(C)CC[C@H]4[C@H](C)CC[C@@H]1[C@]24OO3 | 5.6 µg/mL (≈ 8.55 µM) | 0.54 µg/mL (≈ 0.825 µM) | 0.025 µg/mL (≈ 0.0382 µM) | 1.04 µg/mL (≈ 1.59 µM) | 0.38 µg/mL (≈ 0.58 µM)
3 | CO[C@@]12[C@H](COC(N)=O)C3=C(C(=O)C(C)=C(N)C3=O)N1C[C@@H]1N[C@@H]12 [MITOMYCIN] | 1.5 µg/mL (≈ 4.49 µM) | 3.94 µg/mL (≈ 11.8 µM) | 0.93 µg/mL (≈ 2.78 µM) | 0.85 µg/mL (≈ 2.54 µM) | 0.02 µg/mL (≈ 0.0598 µM)
4 | CC(=O)O[C@H]1C(=O)[C@@]2(C)[C@H]([C@H](OC(=O)c3ccccc3)[C@]3(O)C[C@H](OC(=O)[C@H](O)[C@@H](NC(=O)c4ccccc4)c4ccccc4)C(C)=C1C3(C)C)[C@]1(OC(C)=O)CO[C@@H]1C[C@@H]2O [PACLITAXEL] | 2.27 µg/mL (≈ 2.66 µM) | 1.34 µg/mL (≈ 1.57 µM) | – | 7.39 µg/mL (≈ 8.65 µM) | 0.01 µg/mL (≈ 0.0117 µM)
5 | C[C@H]1[C@@H](CCCCNC(=O)CC[C@H]2O[C@@H]3O[C@]4(C)CC[C@H]5[C@H](C)CC[C@@H]([C@H]2C)[C@]35OO4)O[C@@H]2O[C@]3(C)CC[C@H]4[C@H](C)CC[C@@H]1[C@]24OO3 | > 20 µg/mL | > 20 µg/mL | > 20 µg/mL | > 20 µg/mL | 20.2 µg/mL (≈ 30.5 µM)
6 | C[C@H]1[C@@H](CCCCN)O[C@@H]2O[C@]3(C)CC[C@H]4[C@H](C)CC[C@@H]1[C@]24OO3 | 6.18 µg/mL (≈ 18.2 µM) | 5.63 µg/mL (≈ 16.6 µM) | 0.02 µg/mL (≈ 0.0589 µM) | > 20 µg/mL | 2.2 µg/mL (≈ 6.48 µM)
7 | C[C@H]1[C@@H](CCS(=O)(=O)CCCS(=O)(=O)CC[C@H]2O[C@@H]3O[C@]4(C)CC[C@H]5[C@H](C)CC[C@@H]([C@H]2C)[C@]35OO4)O[C@@H]2O[C@]3(C)CC[C@H]4[C@H](C)CC[C@@H]1[C@]24OO3 | 8.4 µg/mL (≈ 11 µM) | 10 µg/mL (≈ 13.1 µM) | 5.6 µg/mL (≈ 7.36 µM) | 8.5 µg/mL (≈ 11.2 µM) | 0.38 µg/mL (≈ 0.499 µM)
8 | C[C@H]1[C@@H](CCNC(=O)CC[C@H](N)C(=O)NCC[C@H]2O[C@@H]3O[C@]4(C)CC[C@H]5[C@H](C)CC[C@@H]([C@H]2C)[C@]35OO4)O[C@@H]2O[C@]3(C)CC[C@H]4[C@H](C)CC[C@@H]1[C@]24OO3 | 15.6 µg/mL (≈ 21.3 µM) | 16.5 µg/mL (≈ 22.5 µM) | 15.3 µg/mL (≈ 20.8 µM) | > 20 µg/mL | 6.5 µg/mL (≈ 8.86 µM)
9 | C[C@H]1[C@@H](CCCCN=[N+]=[N-])O[C@@H]2O[C@]3(C)CC[C@H]4[C@H](C)CC[C@@H]1[C@]24OO3 | 10.3 µg/mL (≈ 28.2 µM) | 1.61 µg/mL (≈ 4.41 µM) | 11.6 µg/mL (≈ 31.7 µM) | > 20 µg/mL | 2.76 µg/mL (≈ 7.55 µM)
10 | C[C@H]1[C@@H](CCNC(=O)CC[C@H](NC(=O)CC[C@H]2O[C@@H]3O[C@]4(C)CC[C@H]5[C@H](C)CC[C@@H]([C@H]2C)[C@]35OO4)C(=O)NCC[C@H]2O[C@@H]3O[C@]4(C)CC[C@H]5[C@H](C)CC[C@@H]([C@H]2C)[C@]35OO4)O[C@@H]2O[C@]3(C)CC[C@H]4[C@H](C)CC[C@@H]1[C@]24OO3 | 0.12 µg/mL (≈ 0.114 µM) | 1.07 µg/mL (≈ 1.01 µM) | 0.017 µg/mL (≈ 0.0161 µM) | 18.3 µg/mL (≈ 17.3 µM) | 0.09 µg/mL (≈ 0.0852 µM)
11 | C[C@H]1[C@@H](CCC(=O)N[C@@H](CCC(=O)O)C(=O)O)O[C@@H]2O[C@]3(C)CC[C@H]4[C@H](C)CC[C@@H]1[C@]24OO3 | > 20 µg/mL | > 20 µg/mL | 13.4 µg/mL (≈ 28.5 µM) | > 20 µg/mL | 8.6 µg/mL (≈ 18.3 µM)
12 | COc1cccc2c1C(=O)c1c(O)c3c(c(O)c1C2=O)C[C@@](O)(C(=O)CO)C[C@@H]3O[C@H]1C[C@H](N)[C@H](O)[C@H](C)O1 [DOXORUBICIN] | 0.39 µg/mL (≈ 0.718 µM) | 0.67 µg/mL (≈ 1.23 µM) | – | 6.24 µg/mL (≈ 11.5 µM) | 0.1 µg/mL (≈ 0.184 µM)
13 | C[C@H]1[C@@H](CCSCC[C@H]2O[C@@H]3O[C@]4(C)CC[C@H]5[C@H](C)CC[C@@H]([C@H]2C)[C@]35OO4)O[C@@H]2O[C@]3(C)CC[C@H]4[C@H](C)CC[C@@H]1[C@]24OO3 | 0.4 µg/mL (≈ 0.642 µM) | 0.23 µg/mL (≈ 0.369 µM) | 0.017 µg/mL (≈ 0.0273 µM) | 14.2 µg/mL (≈ 22.8 µM) | 0.24 µg/mL (≈ 0.385 µM)
